Source: PubChem BioAssay (NCI)
Several values for one entry are separate records, joined by “and”; a condition that tells them apart may be missing. Equal entries are not always repeated.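 48-hour exposure; five concentrations; linearly interpolated endpoints. The concentration for 50% growth inhibition is given as GI50. The concentration for full growth arrest is given as TGI.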 Where a SMILES comes first, the peptide text is derived from it. [ ]: non-standard residue; d: D form. Phe(4-Cl) = N[CH](Cc1ccc(Cl)cc1)C(=O)O

Experiments:
Assay in all cases: NCI tumour cell line growth inhibition, 48 h
[1] = system: HOP-92 NSCLC
[2] = system: SNB-78 CNS
[3] = system: DLD-1 colon
[4] = system: 786-0 renal
[5] = system: HT29 colon
[6] = system: HCT-116 colon
[7] = system: DMS 273 small cell lung
[8] = system: M19-MEL melanoma
[9] = system: NCI/ADR-RES ovarian
[10] = system: MDA-MB-435

Row | SMILES | GI50 [1] | TGI [1] | GI50 [2] | TGI [2] | GI50 [3] | TGI [3] | GI50 [4] | TGI [4] | GI50 [5] | TGI [5] | GI50 [6] | TGI [6] | GI50 [7] | TGI [7] | TGI [8] | TGI [9] | TGI [10] | GI50 [9] | GI50 [10] | GI50 [8]
1 | N.N.N.N.N.O=C([O-])c1nn[n-]n1.[Cl-].[Co+3] | > 100000 nM | > 100 µM | > 100000 nM | > 100 µM | > 100000 nM | > 100 µM | > 100000 nM | > 100 µM | > 100000 nM | > 100 µM | > 100000 nM | > 100 µM | > 100000 nM | > 100 µM |  |  |  |  |  | 
2 | CN/N=C(/CCN1CCCC1)CC(c1ccccc1)c1c(O)c2ccccc2oc1=O (centres undefined) |  | 41.8 µM |  | > 100 µM |  | > 100 µM |  | > 100 µM |  | > 100 µM |  | > 100 µM |  | > 100 µM | > 100 µM | > 100 µM | > 100 µM |  |  | 
3 | COc1c2c(cc3nc4ccccc4nc13)CCC(C(C)(C)O)C2 (centres undefined) |  | > 100 µM |  | > 100 µM |  | > 100 µM |  | > 100 µM |  | > 100 µM |  | > 100 µM |  | > 100 µM | > 100 µM |  |  |  |  | 
4 | Cn1cc(C(=O)c2ccccc2)ccc1=O |  | > 100 µM |  | > 100 µM |  | > 100 µM |  | > 100 µM |  | > 100 µM |  | > 100 µM |  | > 100 µM | > 100 µM |  |  |  |  | 
5 | Nc1ccc(/C=C/c2ccnc3ccccc23)cc1 |  | 50.9 µM |  |  |  | > 100 µM |  | 57.6 µM |  | 65.1 µM |  | 42.4 µM |  | 48.9 µM | 90 µM |  |  |  |  | 
6 | O=c1cccccc1NCCCNc1cccccc1=O |  | > 100 µM |  | > 100 µM |  |  |  | > 100 µM |  | > 100 µM |  | > 100 µM |  | > 100 µM | > 100 µM |  |  |  |  | 
7 | COC(=O)C1=NC(=S)NC(c2ccccc2)C1c1nc2ccccc2s1 (centres undefined) |  | > 100 µM |  | > 100 µM |  | > 100 µM |  | > 100 µM |  | > 100 µM |  | > 100 µM |  | > 100 µM | > 100 µM |  |  |  |  | 
8 | CCC1(O)C(=O)OCc2c1cc1n(c2=O)Cc2cc3ccc(C=O)cc3nc2-1 (centres undefined) |  | 42 µM and 84.4 µM |  | 98.2 µM |  | > 100 µM | 450 nM | 9.18 µM and 4.95 µM |  | 16.5 µM and > 89 µM | 519 nM | 7.29 µM and 16.4 µM |  | 3.89 µM | 19.8 µM | 6.73 µM and 12.6 µM | 31.2 µM and 35.7 µM | 1330 nM | 5.9 µM | 
9 | CC1=C(C)CC2(CCCCC2=O)S(=O)C1 (centres undefined) |  | > 100 µM |  | > 100 µM |  | > 100 µM |  | > 100 µM |  | > 100 µM |  | > 100 µM |  | > 100 µM | > 100 µM |  |  |  |  | 
10 | CC(O)C(NC(=O)C(Cc1ccccc1)NC(=O)C(NC(=O)C(CCCCN)NC(=O)C(Cc1c[nH]c2ccccc12)NC(=O)C(Cc1ccc(O)cc1)NC(=O)C(Cc1ccc(Cl)cc1)NC(=O)C(N)Cc1ccccc1)C(C)O)C(N)=O (centres undefined) (H-F[Phe(4-Cl)]YWKTFT-NH2; configuration not given here) |  |  |  | 61 µM |  | 59.5 µM |  | 41.3 µM |  | 62.8 µM |  | 49 µM |  | > 100 µM | 40.2 µM |  |  |  |  | 
11 | CC(=O)OC[C@]12CC[C@H]3[C@@H](C[C@H]4O[C@]45[C@@H](O)C=CC(=O)[C@]35C)[C@@H]1CC[C@@H]2[C@H](C)[C@H]1CC(C)=C(C)C(=O)O1 | 220 nM and 189 nM | 0.722 µM and 1.27 µM | 453 nM and 321 nM | 1.84 µM | 273 nM and 129 nM | 0.649 µM and 0.31 µM | 241 nM and 232 nM | 0.597 µM and 0.595 µM | 302 nM and 305 nM | 0.716 µM and 0.961 µM | 277 nM and 166 nM | 0.6 µM and 0.424 µM | 605 nM and 420 nM | 1.51 µM | 2.32 µM |  |  |  |  | 598 nM and 515 nM
12 | NC1=NN(c2ccccc2)C(=O)C1C(=O)CCC(=O)Nc1cccc(C(F)(F)F)c1 (centres undefined) |  | > 100 µM |  | > 100 µM |  | > 100 µM |  | > 100 µM |  | > 100 µM |  | > 100 µM |  | > 100 µM | > 100 µM |  |  |  |  | 
13 | COc1ccc(-c2cn3ccsc3n2)cc1 |  | > 100 µM |  | > 100 µM |  | > 100 µM |  | > 100 µM |  | > 100 µM |  | > 100 µM |  | > 100 µM | > 100 µM |  |  |  |  | 
14 | Cc1ccc(Nc2nc3c(s2)C(=O)c2ccccc2C3=O)c(C)c1 |  | 22.9 µM |  | 43.6 µM |  | 31.4 µM |  | 32.5 µM |  | 48.3 µM |  |  |  | 43.7 µM | 5.71 µM |  |  |  |  | 
15 | COc1ccc2c(c1)C=C([N+](=O)[O-])C(C1OC(C)(C)OC1C1COC(C)(C)O1)O2 (centres undefined) |  | 37.8 µM |  | 11.8 µM |  | 3.15 µM |  | 26.5 µM |  | 4.34 µM |  | 4.04 µM |  | 9.22 µM | 3.31 µM |  | 14.8 µM |  |  | 
16 | COc1cc(OC(=O)c2c(O)cc(O)c(O)c2C)cc(C)c1C(=O)Oc1cc(C)c(C(=O)O)c(O)c1 |  | > 100 µM |  | > 100 µM |  | > 100 µM |  | > 100 µM |  | > 100 µM |  | > 100 µM |  | > 100 µM | > 100 µM |  |  |  |  | 
17 | NCCCC[C@@H]1NC(=O)[C@H]2CCCN2C(=O)[C@H](Cc2ccccc2)NC(=O)[C@H](Cc2ccccc2)CNC1=O | 44100 nM | > 100 µM |  |  |  |  | > 100000 nM | > 100 µM | > 100000 nM | > 100 µM | > 100000 nM | > 100 µM |  |  |  | > 100 µM | > 100 µM | > 100000 nM | > 100 µM | 
18 | C[N+](C)(C)CC1CCCC(C[N+](C)(C)C)C1=O (centres undefined) |  | 1.17 µM |  | 5.88 µM |  | 0.386 µM |  | 2.38 µM |  | 14.2 µM |  | 2.23 µM |  | 10.1 µM | 2.33 µM | 7.27 µM | 3.43 µM |  |  | 
